Data on 14 compounds can be found in patent US11155551B2, “Nicotinic acetylcholine receptor silent agonists” (University of Florida Research Foundation, Inc., priority 2015, dated 2021).

One data set deals with T1, human α7 nAChR (Homo sapiens, UniProt P36544).
T1 construct: expressed in transfected cells; host or cells: Xenopus oocytes
The data set can be described thus: Two-electrode voltage clamping of human α7 nAChR expressed in Xenopus oocytes (net-charge / peak current relative to 60 μM ACh). It counts as cell-based. The following applies: for Potentiated response: 30 μM test compound + 10 μM PNU-120596 co-application; for Potentiated response / Relative response: relative to 60 μM ACh control, mean ± SEM, N ≥ 4; for Relative response: net-charge response to 30 μM test compound alone; for functional classification at α7 nAChR: 30 μM alone and with 10 μM PNU-120596, partial agonist = net charge > 1/10th ACh control. As for the experimental part: Electrophysiology: The panel of compounds synthesized was assayed using human α7 nAChR expressed in Xenopus oocytes and two-electrode voltage clamping. The partial agonism activity was evaluated, quantified as net-charge for 30 μM applications of compounds, measured relative to the control response to applications of 60 μM ACh. The induction of PAM-sensitive desensitization was detected as the net-charge responses when compounds were co-applied with the PAM PNU-120596 (30 μM compound+10 μM PNU-120596), measured relative to responses to 60 μM ACh applied alone. […] It is a unique property of α7 orthosteric agonist-induced currents that they vary systematically in the relationship between peak current and net charge as a function of the effective concentration applied (Papke & Papke (2002) Br. J. Pharm. 137: 49-61; Papke & Thinschmidt (1998) Neurosci. Let. 256: 163-166). This was due to the concentration-dependent desensitization of the receptors, which is likely to be associated with high levels of agonist binding site occupancy (Williams et al., (2011) J. Gen. Physiol. 137: 369-384) and is observed even when agonists are rapidly applied to small cells (Williams et al., (2012) Mol. Pharmacol. 82: 746-759) or acutely dissociated neurons (Uteshev et al., (2002) Brain Res. 948: 33-46). The control ACh concentration used for these experiments is roughly the EC80 for the net-charge responses.
By normalizing both the peak currents and net-charge measurements of the drug responses at the probe concentration of 30 μM (FIG. 3B) to those of the ACh control, the relationship between the probe concentration and the EC for each of the drugs was estimated (Papke, R. L. (2005) Life Sci.). At a concentration where the ratio of the normalized measures equaled one, the drug would be at the same effective concentration as 60 μM ACh.
Electrophysiology: New compounds were assayed for activity with the α7 nAChR expressed in Xenopus oocytes using two-electrode voltage clamping as previously described in Papke et al., (2014) J. Pharmacol. Experimental Therap. 350: 665-680, incorporated herein by reference in its entirety, and compared to responses evoked by 60 μM Ach (FIGS. 5 and 6). The compound set was assayed at a concentration of 30 μM to provide a standard comparison benchmark.
Based on earlier experience this concentration is high enough to provide an observable response and low enough to avoid possible complications such as channel block. The net-charge response for each compound application is reported relative to those for ACh control applications. Data were expressed as the mean ±S.E.M. from at least four oocytes for each experiment and were plotted by Kaleidagraph (Abelbeck Software, Reading, Pa.).
For orientation: In two-electrode clamp one electrode senses voltage and the other passes current.

In a further data set the target is α3β4 nAChR (Homo sapiens, UniProt P30926+P32297). Kind of data set: Receptor subtype specificity: α3β4 nAChR activation / antagonism. Conditions: 100 μM. It counts as cell-based.
In another data set the target is α4β2 nAChR (Homo sapiens, UniProt P17787+P43681). The data set can be described thus: Receptor subtype specificity: α4β2 nAChR activation / antagonism. Type of data set: cell-based. The following applies: for antagonist activity at α4β2: 100 μM.
Data set [1] relates to LPS-stimulated secretion of TNF-α in rat cultured microglia. The following applies: cited from earlier work.
Another data set has as its system mouse pain models. Conditions: formalin- and acetic acid-induced nociceptive conditions, chronic constrictive nerve injury; cited from earlier work.

T1 sequence (P36544 23-502): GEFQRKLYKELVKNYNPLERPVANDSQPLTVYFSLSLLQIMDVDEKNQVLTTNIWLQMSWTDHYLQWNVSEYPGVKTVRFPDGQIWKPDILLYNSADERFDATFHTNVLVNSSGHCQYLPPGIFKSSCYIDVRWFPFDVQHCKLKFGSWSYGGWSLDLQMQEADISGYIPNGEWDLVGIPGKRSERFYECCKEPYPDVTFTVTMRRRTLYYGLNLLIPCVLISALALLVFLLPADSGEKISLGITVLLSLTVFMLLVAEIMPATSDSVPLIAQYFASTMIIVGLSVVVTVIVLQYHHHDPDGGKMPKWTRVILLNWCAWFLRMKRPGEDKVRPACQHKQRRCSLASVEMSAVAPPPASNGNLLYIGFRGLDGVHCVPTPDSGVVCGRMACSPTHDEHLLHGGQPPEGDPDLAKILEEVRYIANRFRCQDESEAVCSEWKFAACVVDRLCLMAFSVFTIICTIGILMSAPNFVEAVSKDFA
α4β2 nAChR, sequence (P43681 29-627 limits assumed): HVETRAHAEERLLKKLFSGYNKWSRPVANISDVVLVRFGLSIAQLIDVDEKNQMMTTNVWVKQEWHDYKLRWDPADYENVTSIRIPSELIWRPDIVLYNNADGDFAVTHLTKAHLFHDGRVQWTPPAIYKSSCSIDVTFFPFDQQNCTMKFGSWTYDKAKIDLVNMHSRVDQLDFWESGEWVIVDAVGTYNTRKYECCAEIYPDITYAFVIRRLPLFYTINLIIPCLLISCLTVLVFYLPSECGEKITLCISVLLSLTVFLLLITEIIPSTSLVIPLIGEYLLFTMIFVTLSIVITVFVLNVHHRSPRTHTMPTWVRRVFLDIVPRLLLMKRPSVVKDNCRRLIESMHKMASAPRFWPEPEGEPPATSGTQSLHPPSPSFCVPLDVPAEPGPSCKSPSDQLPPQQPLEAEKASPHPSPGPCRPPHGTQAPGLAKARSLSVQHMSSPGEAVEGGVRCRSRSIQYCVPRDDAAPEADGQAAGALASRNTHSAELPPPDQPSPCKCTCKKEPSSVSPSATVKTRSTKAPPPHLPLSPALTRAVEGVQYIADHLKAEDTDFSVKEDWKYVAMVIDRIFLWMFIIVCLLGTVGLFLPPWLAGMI
α4β2 nAChR, sequence (P17787 26-502): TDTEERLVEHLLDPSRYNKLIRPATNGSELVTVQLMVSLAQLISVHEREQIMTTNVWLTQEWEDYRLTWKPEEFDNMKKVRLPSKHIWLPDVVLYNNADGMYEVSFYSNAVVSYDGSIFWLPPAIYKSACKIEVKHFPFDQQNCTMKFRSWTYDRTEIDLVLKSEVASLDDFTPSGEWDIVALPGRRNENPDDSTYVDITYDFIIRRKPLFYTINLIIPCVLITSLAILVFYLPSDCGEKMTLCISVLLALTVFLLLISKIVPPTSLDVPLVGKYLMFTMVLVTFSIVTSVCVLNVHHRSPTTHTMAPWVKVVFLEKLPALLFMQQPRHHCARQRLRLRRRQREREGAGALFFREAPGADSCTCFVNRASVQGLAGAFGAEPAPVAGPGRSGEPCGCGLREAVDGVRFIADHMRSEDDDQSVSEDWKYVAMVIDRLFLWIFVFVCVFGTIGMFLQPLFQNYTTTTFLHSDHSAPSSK
α3β4 nAChR, sequence (P32297 32-505): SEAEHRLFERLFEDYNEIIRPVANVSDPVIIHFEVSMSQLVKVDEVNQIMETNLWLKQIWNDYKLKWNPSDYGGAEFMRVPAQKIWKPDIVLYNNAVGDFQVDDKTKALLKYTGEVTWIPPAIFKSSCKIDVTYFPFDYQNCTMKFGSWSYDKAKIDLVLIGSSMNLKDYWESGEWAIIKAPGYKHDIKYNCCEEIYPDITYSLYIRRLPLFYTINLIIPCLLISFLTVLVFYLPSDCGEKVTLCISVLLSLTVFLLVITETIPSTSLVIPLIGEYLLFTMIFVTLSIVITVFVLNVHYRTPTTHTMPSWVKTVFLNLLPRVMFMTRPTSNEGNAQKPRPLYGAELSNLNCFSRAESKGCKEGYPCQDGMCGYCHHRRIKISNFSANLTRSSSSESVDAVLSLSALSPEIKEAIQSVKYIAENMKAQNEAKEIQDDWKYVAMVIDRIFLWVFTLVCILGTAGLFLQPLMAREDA
α3β4 nAChR, sequence (P30926 22-498): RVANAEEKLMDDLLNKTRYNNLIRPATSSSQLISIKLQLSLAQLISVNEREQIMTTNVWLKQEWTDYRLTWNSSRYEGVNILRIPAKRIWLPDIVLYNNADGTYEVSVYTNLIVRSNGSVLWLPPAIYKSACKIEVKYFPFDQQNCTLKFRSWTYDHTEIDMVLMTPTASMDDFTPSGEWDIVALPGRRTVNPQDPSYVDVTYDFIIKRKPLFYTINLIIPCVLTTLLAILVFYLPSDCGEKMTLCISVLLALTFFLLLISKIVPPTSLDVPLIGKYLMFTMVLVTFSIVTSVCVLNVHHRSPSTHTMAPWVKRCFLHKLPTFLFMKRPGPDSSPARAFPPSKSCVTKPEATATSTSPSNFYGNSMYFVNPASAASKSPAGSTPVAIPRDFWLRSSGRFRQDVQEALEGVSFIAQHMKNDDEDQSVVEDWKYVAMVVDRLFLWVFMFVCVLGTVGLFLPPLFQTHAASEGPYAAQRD

For the compound `CCN1CCN(c2ccc(OC)cc2)CC1`, the melting point – broadly, the temperature of the solid-liquid transition – lay within 56.6 to 57.8 °C.
On to `CCN1CCN(c2cccc(O)c2)CC1`, for which the melting point is 150.3 to 151.6 °C.
In turn, `CCN1CCN(c2ccc3ccccc3c2)CC1` had a melting point of 69.1 to 70 °C.
`CCN1CCN(c2ccc(Br)cc2)CC1` registered a melting point of 85 to 85.5 °C.
The compound `CCN1CCN(c2ccc(C(F)(F)F)cc2)CC1` [Compound 1n, 1-ethyl-4-(4-(trifluoromethyl)phenyl)piperazine] displayed a melting point of 56.3 to 56.5 °C. At human α7 nAChR, the Potentiated response was determined as 1.4 ± 0 and the Relative response was 0.000 ± 0.004.
For `CCN1CCN(c2ccc(F)cc2)CC1` [Compound 1r, 1-ethyl-4-(4-fluorophenyl)piperazine], the melting point is 30 to 30.5 °C. In addition, at human α7 nAChR, the Potentiated response came out at 0.0 ± 0.0 and the Relative response amounted to 0.000 ± 0.003.
With `CC[N+]1(CC)CCN(c2ccc(C)cc2)CC1.[I-]` [Compound 2a, 1,1-diethyl-4-p-tolylpiperazin-1-ium iodide], the melting point is 147.4 to 148.8 °C. Moreover, at human α7 nAChR, the “functional classification at α7 nAChR” value is on record as “candidate silent agonists”, the Potentiated response is reported as 3.6 ± 2.0 and the Relative response stood at 0.011 ± 0.003.
`CC[N+]1(CC)CCN(c2cccc(C)c2)CC1.[I-]` [Compound 2d, 1,1-diethyl-4-m-tolylpiperazin-1-ium iodide] showed a melting point of 144 to 145 °C. At human α7 nAChR, the “functional classification at α7 nAChR” value is given as “no significant activity as either partial agonists or as silent agonists”, the Potentiated response is listed as 0.2 ± 0.1 and the Relative response was 0.001 ± 0.000.
As to `CC[N+]1(CC)CCN(c2cccc(OC)c2)CC1.[I-]` [Compound 2g, 1,1-diethyl-4-(3-methoxyphenyl)piperazin-1-ium iodide], on human α7 nAChR, the “functional classification at α7 nAChR” value is “no significant activity as either partial agonists or as silent agonists”, the Potentiated response came out at 0.6 ± 0.2 and the Relative response came out at 0.011 ± 0.011. On human α7 nAChR (co-application with PNU-120596), the “PAM-dependent response compared to the parent unsubstituted diEPP” value was found to be 50%. Besides, the “antagonism of α3β4” value on α3β4 nAChR was “significant antagonism”.
On to `CC[N+]1(CC)CCN(c2ccc(C(F)(F)F)cc2)CC1.[I-]` [Compound 2n, 1,1-diethyl-4-(4-(trifluoromethyl)phenyl)piperazin-1-ium iodide], for which, on human α7 nAChR, the “functional classification at α7 nAChR” value is reported as “candidate silent agonists”, the Potentiated response came out at 61.8 ± 7.7 and the Relative response came to 0.032 ± 0.003. On α4β2 nAChR, the “activation / partial agonism of α4β2 nAChR” value is “neither to be partial agonists” and the “antagonist activity at α4β2” value is recorded as “nor to have significant antagonist activity”.
Turning to `CC[N+]1(CC)CCN(c2cccc(Br)c2)CC1.[I-]` [Compound 2p, 4-(3-bromophenyl)-1,1-diethylpiperazin-1-ium iodide], on human α7 nAChR, the “functional classification at α7 nAChR” value was “candidate silent agonists”, the Potentiated response worked out at 10.0±1.7 and the Relative response is recorded as 0.040 ± 0.006. Further, at human α7 nAChR (co-application with PNU-120596, meta-substituted series), the “PAM-dependent currents relative to ACh” value is recorded as 9.98 fold. For the same compound, at α4β2 nAChR, the “activation / partial agonism of α4β2 nAChR” value is listed as “neither to be partial agonists” and the “antagonist activity at α4β2” value was “nor to have significant antagonist activity”.
For `CC[N+]1(CC)CCC(Nc2ccccc2)CC1.[I-]` [Compound 6, 1,1-diethyl-4-(phenylamino)piperidinium iodide], at human α7 nAChR, the “functional classification at α7 nAChR” value is reported as “no channel activation within experimental error”, the Potentiated response stood at 5.6 ± 2.1 and the Relative response is listed as 0.002 ± 0.004. For the same compound, the “PAM-dependent response compared to the parent diEPP” value at human α7 nAChR (co-application with PNU-120596) is reported as “enhanced PAM-dependent responses”.
For the compound `CC[N+]1(CC)CCC(=Cc2ccccc2)CC1.[I-]` [Compound 8, 4-benzylidene-1,1-diethylpiperidinium iodide], on human α7 nAChR, the Potentiated response worked out at 9.9 ± 3.1 and the Relative response came out at 0.071 ± 0.027. Also, on human α7 nAChR (co-application with PNU-120596), the “PAM-dependent response compared to the parent diEPP” value is “enhanced PAM-dependent responses”.
Consider `O=C(c1ccc(-c2cccc(C(F)(F)F)c2)o1)N1CCN2CCC1CC2` [NS-6740, 1,4-diazabicyclo[3.2.2]nonan-4-yl(5-(3-(trifluoromethyl)phenyl)furan-2-yl) methanone], for which, in data set [1], the “suppression of LPS-stimulated secretion of TNF-α” value was “more efficacious than some agonists (including choline)”. For the same compound, the antinociceptive activity result with mouse pain models is given as “showed antinoceptive activity”.
